Test results from the supplement of paper PMC10307832.

Key:
Test in all cases: relative viability (nuclei count vs DMSO), 5 days (fraction); higher = more cells survive
[1] = system: 201T
Procedure, shortened: (§1)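 For relative viability, nuclei counts in treated wells were divided by those in vehicle wells. Lung cancer cell lines had been pin-tool dosed in 1536-well plates the day after seeding and cultured for 5 days, then fixed and stained in one step (final 0.05% Triton X-100, 1% formaldehyde, 1 ug/ml Hoechst) and imaged at 4×. Doses were one drug alone or a fixed anchor-drug dose plus five library-drug doses (not always all listed) in √10 steps, and values are duplicate-plate medians.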

[2] = system: A-427
Procedure, shortened: as §1

[3] = system: ABC-1
Procedure, shortened: as §1

[4] = system: BEN
Procedure, shortened: as §1

[5] = system: CAL-12T
Procedure, shortened: as §1

[6] = system: H3255
Procedure, shortened: as §1

[7] = system: LC-2-ad
Procedure, shortened: as §1

[8] = system: LCLC-97TM1
Procedure, shortened: as §1

[9] = system: NCI-H1650
Procedure, shortened: as §1

[10] = system: NCI-H1651
Procedure, shortened: as §1

[11] = system: NCI-H1915
Procedure, shortened: as §1

CC1(C)CCC(c2ccc(Cl)cc2)=C(CN2CCN(c3ccc(C(=O)NS(=O)(=O)c4ccc(N[C@H](CCN5CCOCC5)CSc5ccccc5)c(S(=O)(=O)C(F)(F)F)c4)cc3)CC2)C1 [Navitoclax] + Cc1cc(Nc2cc(N3CCN(C)CC3)nc(Sc3ccc(NC(=O)C4CC4)cc3)n2)n[nH]1 [Tozasertib] (partner 0.1 µM)
relative viability ([1]; first compound 0.005 µM): 0.975 | relative viability ([1]; first compound 0.01581 µM): 1.04 | relative viability ([1]; first compound 0.05 µM): 0.778 | relative viability ([1]; first compound 0.1581 µM): 0.931 | relative viability ([1]; first compound 0.5 µM): 1.01 | relative viability ([2]; first compound 0.005 µM): 0.199 | relative viability ([2]; first compound 0.01581 µM): 0.192 | relative viability ([2]; first compound 0.05 µM): 0.161 | relative viability ([2]; first compound 0.1581 µM): 0.197 | relative viability ([2]; first compound 0.5 µM): 0.213 | relative viability ([3]; first compound 0.005 µM): 0.158 | relative viability ([3]; first compound 0.01581 µM): 0.19 | relative viability ([3]; first compound 0.05 µM): 0.144 | relative viability ([3]; first compound 0.1581 µM): 0.164 | relative viability ([3]; first compound 0.5 µM): 0.141 | relative viability ([4]; first compound 0.005 µM): 0.536 | relative viability ([4]; first compound 0.01581 µM): 0.568 | relative viability ([4]; first compound 0.05 µM): 0.522 | relative viability ([4]; first compound 0.1581 µM): 0.451 | relative viability ([4]; first compound 0.5 µM): 0.421 | relative viability ([5]; first compound 0.005 µM): 0.273 | relative viability ([5]; first compound 0.01581 µM): 0.354 | relative viability ([5]; first compound 0.05 µM): 0.312 | relative viability ([5]; first compound 0.1581 µM): 0.347 | relative viability ([5]; first compound 0.5 µM): 0.308 | relative viability ([6]; first compound 0.005 µM): 0.532 | relative viability ([6]; first compound 0.01581 µM): 0.705 | relative viability ([6]; first compound 0.05 µM): 0.673 | relative viability ([6]; first compound 0.1581 µM): 0.585 | relative viability ([6]; first compound 0.5 µM): 0.609 | relative viability ([7]; first compound 0.005 µM): 0.455 | relative viability ([7]; first compound 0.01581 µM): 0.544 | relative viability ([7]; first compound 0.05 µM): 0.546 | relative viability ([7]; first compound 0.1581 µM): 0.507 | relative viability ([7]; first compound 0.5 µM): 0.343 | relative viability ([8]; first compound 0.005 µM): 0.238 | relative viability ([8]; first compound 0.01581 µM): 0.164 | relative viability ([8]; first compound 0.05 µM): 0.255 | relative viability ([8]; first compound 0.1581 µM): 0.193 | relative viability ([8]; first compound 0.5 µM): 0.224 | relative viability ([9]; first compound 0.005 µM): 0.363 | relative viability ([9]; first compound 0.01581 µM): 0.419 | relative viability ([9]; first compound 0.05 µM): 0.415 | relative viability ([9]; first compound 0.1581 µM): 0.34 | relative viability ([9]; first compound 0.5 µM): 0.356 | relative viability ([10]; first compound 0.005 µM): 0.586 | relative viability ([10]; first compound 0.01581 µM): 0.686 | relative viability ([10]; first compound 0.05 µM): 0.493 | relative viability ([10]; first compound 0.1581 µM): 0.62 | relative viability ([10]; first compound 0.5 µM): 0.66 | relative viability ([11]; first compound 0.005 µM): 0.42 | relative viability ([11]; first compound 0.01581 µM): 0.422 | relative viability ([11]; first compound 0.05 µM): 0.432
